The test system of data set [1] is recombinant human CYP (rCYP) enzymes. Briefly: Incubations of [14C]pomalidomide with 10 recombinant human CYP enzymes, radiochromatography / LC–MS/MS. It counts as in vitro ADME. The method, then: The CYP enzymes responsible for the formation of the hydroxy pomalidomide metabolites were investigated using 10 recombinant human CYP (rCYP) enzymes (CYP1A2, CYP2A6, CYP2B6, CYP2C8, CYP2C9, CYP2C19, CYP2D6, CYP2E1, CYP3A4 and CYP3A5) at 100 pmol/mL. Incubations were prepared using [^14C]pomalidomide (1 μM) in 0.1 M potassium phosphate buffer (pH 7.4) with 4 mM MgCl2, pre-incubated for 5 min at 37 °C. Reactions were initiated by the addition of 1 mM NADPH and continued for 30 or 60 min. Reactions were quenched with two volumes of ice-cold 0.1 % formic acid in acetonitrile containing [^13C5]pomalidomide as internal standard. The samples were mixed and centrifuged, and a subsample of the supernatant evaporated to dryness. The resulting pellet was reconstituted in 0.1 % formic acid in water and acetonitrile (4:1, v/v) and analyzed using HPLC with radiochromatography and/or LC–MS/MS. The rate of formation of the notable human metabolite M17 was calculated and scaled to human in vivo situation using relative abundance method.

A further data set relates to OPM-2 MM cell. Briefly: Inhibition of MM cell proliferation ([3H]-thymidine incorporation, 3-day culture). The format is cell-based. The note with it: Homo sapiens. The method, then: (§1) Metabolites and hydrolysis products of pomalidomide were tested for pharmacological activity in the following three assay systems: (1) inhibition of MM cell proliferation, (2) enhancement of primary human T cell IL-2 production and (3) inhibition of TNF-α production by lipopolysaccharide (LPS)-stimulated human peripheral blood mononuclear cells (PBMC). For all three assay types, compounds were dissolved in 100 % dimethyl sulfoxide (DMSO) and diluted into complete cell culture medium, consisting of Roswell Park Memorial Institute (RPMI)-1640 plus penicillin, streptomycin and L-glutamine (Mediatech, Manassas, VA). The MM cell proliferation cell culture medium contained 10 % fetal bovine serum, while the primary human cell cultures contained 10 % human AB serum (Invitrogen, Brown Deer, WI). The final DMSO concentration in the cell culture media was 0.25 %.
(§2) The human MM cell line OPM-2 was obtained from DSMZ (Braunschweig, Germany), and human MM cell lines U266 B1 and NCI-H929 were obtained from ATCC (Manassas, VA). Inhibition of MM cell proliferation was assessed by the [^3H]-thymidine incorporation assay in a 3-day culture in the presence of compounds in complete medium, as previously described. Primary human T cells were isolated from PBMC by negative selection using the RosetteSep T Cell Enrichment Cocktail (STEMCELL Technologies, Tukwila, WA) according to the manufacturer’s procedures. Costimulation of T cell IL-2 production was measured in a 2-day culture of primary human T cells isolated from healthy donors stimulated with anti-CD3 antibody in the presence of compounds, as previously described. Inhibition of TNF-α production by LPS-stimulated human PBMC was measured in a 1-day culture in the presence of compound, as previously described.
For orientation: Uptake of a labelled nucleoside into DNA is a usual measure of proliferation.

Another data set deals with H929 MM cell. The data set is described as above. The format is cell-based. Conditions: Homo sapiens, NCI-H929. Here is the method: as §1, §2
In another data set the test system is U266 MM cell. Described as above. It counts as cell-based. The note with it: Homo sapiens, U-266. Here is the method: as §1, §2
A short description of data set [2]: Metabolite profiling of urine and feces (% of dose excreted). Set-up: key to % of dose excreted, Feces / % of dose excreted, Urine: ND: not detected; D: detected by MS, but at concentrations too low to accurately quantify by radiochromatography. Conditions: radiochromatography; for % of dose excreted, Feces: pooled feces 0–96 h; for % of dose excreted, Urine: pooled urine 0–72 h. The format is in vivo, human. Here is the method:
For each subject, urine samples were pooled using an equal percentage by volume of the 0–6, 6–12, 12–24, 24–48 and 48–72 h samples. Pools of the 0–6, 6–12, 12–24, 24–48 and 48-72 h collections were also prepared across subjects and analyzed for metabolite profiling. Samples were mixed and centrifuged prior to the supernatants being transferred to fresh tubes for metabolite profiling analysis.
For each subject, fecal homogenates for metabolite profiling were pooled using an equal percentage by weight of the 0–24, 24–48, 48–72 and 72–96 h samples. Pools of the 0–24, 24-48, 48–72 and 72–96 h collections were also prepared across subjects and analyzed for metabolite profiling. An aliquot of each pool was extracted with acetonitrile; samples were mixed and centrifuged. The supernatant was removed and the pellets re-suspended with 0.1 % formic acid and extracted with acetonitrile. The combined supernatants were evaporated to dryness under a stream of nitrogen and the residue re-suspended in methanol:0.1 % formic acid in water (1:1). Samples were assayed for extraction recovery prior to metabolite profiling. A control fecal homogenate spiked with [^14C]pomalidomide was extracted in a similar manner to determine the extraction efficiency and stability of [^14C]pomalidomide.
(§3) HPLC analysis for metabolite profiling (HPLC Method 1) was performed using a Waters 2695 Alliance Separation Module (Waters Corp., Milford, MA) with the autosampler set to 4 °C. [^14C]Pomalidomide and metabolites were separated using an ACE C18 column (150 × 4.6 mm, 3 μm; Advanced Chromatography Technologies, Aberdeen, Scotland) equipped with an ACE C18 guard column (10 × 3 mm, 3 μm). The mobile phases used were 25 mM ammonium acetate in water: pH 5.5 with formic acid (mobile phase A) and methanol (mobile phase B). The column temperature was 30 °C, and the flow rate was 0.7 mL/min. The linear gradient was delivered as follows: 0–2 min 100 % A; 2–38 min to 64 % A; 38–44 min to 0 % A; 44–48 min hold at 0 % A; return to initial conditions over 2 min.
(§4) Radioactivity profiles for plasma and excreta were determined by collecting the column eluate into 96-well Deepwell LumaPlates™ at a rate of 0.25 min/fraction. The plates were dried and the radioactivity in each well determined using a PerkinElmer TopCount® NXT™ Microplate Scintillation Counter. HPLC radiochromatograms were reconstructed using LC-ARC data handling software.

Another data set has as its system T cell IL-2 production. The experiment in a line: Enhancement of primary human T cell IL-2 production (anti-CD3 stimulated, 2-day culture). The format is cell-based. The note with it: 48 h, anti-CD3 stimulated primary human T cells. The method, then:
as §1, §2

Another data set concerns PBMC TNF-α production. The experiment in a line: Inhibition of TNF-α production by LPS-stimulated human PBMC (1-day culture). The note with it: 24 h. It counts as cell-based. The method, then:
as §1, §2

Data set [3] in a line: Plasma pharmacokinetics of pomalidomide and circulating metabolites by radiochromatography (metabolite profiling). The format is in vivo, human. The arrangement: key to Plasma (% AUC relative to TRA): ND: not detected; D: detected by MS, but at concentrations too low to accurately quantify by radiochromatography; AUC0–24 / AUC0−∞: concentration or dose not given beside the values. The note with it: for Plasma (% AUC relative to TRA): AUC0–24 (unchanged drug or metabolite)/AUC0–24 (TRA) * 100 %; for Tmax / half-life: human, oral, 2 mg; for Tmax / half-life / AUC0–24 / AUC0−∞ / C max: plasma, radiochromatography; for Tmax: median and range; for half-life: male, read-out: t ½ (converted); for half-life / AUC0–24 / AUC0−∞ / C max: geometric mean (%CV); for AUC/AUCTRA: plasma exposure relative to total radioactivity. The method, then: Individual plasma samples collected from all subjects at 1, 2.5, 4, 6, 10, 12 and 24 h post-dose were analyzed for metabolite profiling. Samples were extracted with acetonitrile, the supernatant was removed, and the pellet was washed with 0.1 % formic acid in water and extracted again with acetonitrile. The combined supernatants were adjusted to 15 or 25 mL by adding acetonitrile then evaporated to dryness under a stream of nitrogen. The residues were re-suspended in 0.1 % formic acid in water, assayed for extraction recovery and analyzed for metabolite profiling. A control plasma sample spiked with [^14C]pomalidomide was extracted in a similar manner to determine the extraction efficiency and stability of [^14C]pomalidomide.
as §3, §4
For pomalidomide and metabolite concentrations in plasma based on metabolite profiling data, pharmacokinetic data were generated by non-compartmental analysis of plasma versus time profiles using WinNonlin (version 4.1, Enterprise Edition).

Values joined by “and” are separate entries in the source; they are usually repeats but may differ in a detail not shown here. Identical values can stand only once.

As to `NC(=O)CCC(C(=O)O)N1C(=O)c2cccc(N)c2C1=O` (stereo not drawn) [Metabolite M11], the “level of metabolite detected by radiochromatography in rCYP incubations” value in data set [1] (all rCYP incubations of [14C]pomalidomide 1 μM) was 2.5–5.9%. In addition, in data set [1] (incubations of [14C]pomalidomide without enzyme), the “level of metabolite detected by radiochromatography in the absence of enzyme” value is listed as 5.5%. Besides, in the data set with OPM-2 MM cell, the IC50 (commonly the concentration needed to halve the response being measured) was > 1000 nM. For the same molecule, in the data set on H929 MM cell, the half-maximal inhibitory concentration (IC50) was > 1000 nM. Moreover, in the data set on U266 MM cell, the half-inhibitory concentration (IC50) is > 1000 nM. In data set [2], the “% of dose excreted, Feces” value was 0.3%; the “% of dose excreted, Urine” value was 23% and 23.3%. Also, in the data set with T cell IL-2 production, the EC50 (as a rule, the concentration giving half of the maximal effect) was > 10000 nM. For the same molecule, the half-inhibitory concentration (IC50) in the data set on PBMC TNF-α production is > 10000 nM. Besides, in data set [3], the “Plasma (% AUC relative to TRA)” value was 6.3%, the Tmax (usually the time at which the peak concentration occurs) worked out at 2.5 h, the half-life was 10 h and the AUC/AUCTRA is reported as 6.34%. In data set [3], the “AUC0–24” value is reported as 12.3 (43.6) ngEq*h/mL, the “AUC0−∞” value is 15.9 (59.7) ngEq*h/mL and the C max is given as 0.965 (33.3) ngEq/mL.

Consider `Nc1ccc(O)c2c1C(=O)N(C1CCC(=O)NC1=O)C2=O` (stereo not drawn) [Metabolite M16, 7-hydroxy pomalidomide], for which the “formation of metabolite in rCYP incubations (LC–MS/MS)” value in data set [1] (any of the samples analyzed) is given as “not observed”. In addition, in the data set on OPM-2 MM cell, the IC50 is > 1000 nM. In addition, the IC50 in the data set with H929 MM cell is > 1000 nM. In the data set on U266 MM cell, the half-maximal inhibitory concentration (IC50) was > 1000 nM. In data set [2], the “% of dose excreted, Urine” value came out at 7.0%. Besides, the 50% effective concentration (EC50) in the data set with T cell IL-2 production is > 10000 nM. Moreover, the half-inhibitory concentration (IC50) in the data set with PBMC TNF-α production is > 10000 nM. Moreover, in data set [3], the “Plasma (% AUC relative to TRA)” value worked out at 6.1%, the Tmax worked out at 1 h, the half-life was 14.2 h and the AUC/AUCTRA worked out at 6.13%. Moreover, in data set [3], the “AUC0–24” value is given as 11.9 (16.8) ngEq*h/mL, the “AUC0−∞” value is recorded as 17.6 (29.9) ngEq*h/mL and the C max is listed as 0.907 (27.4) ngEq/mL.

On to `CC(=O)Nc1cccc2c1C(=O)N(C1CCC(=O)NC1=O)C2=O` (stereo not drawn) [Metabolite M18, N-acetyl pomalidomide], for which the 50% inhibitory concentration (IC50) with OPM-2 MM cell is > 1000 nM; in the data set with H929 MM cell it was > 1000 nM; in the data set on U266 MM cell, > 1000 nM; in the data set on PBMC TNF-α production, > 10000 nM. Further, in data set [2], the “% of dose excreted, Feces” value was “D”. Besides, the “% of dose excreted, Urine” value in data set [2] was found to be 0.1%. For the same molecule, in the data set on T cell IL-2 production, the EC50 was > 10000 nM. In addition, in data set [3], the “Plasma (% AUC relative to TRA)” value is on record as “D”.

Consider `Nc1cccc2c1C(=O)N(C1CC(O)C(=O)NC1=O)C2=O` (stereo not drawn) [Metabolite M19], for which the IC50 in the data set on OPM-2 MM cell was > 1000 nM; in the data set on H929 MM cell, > 1000 nM; in the data set with U266 MM cell, > 1000 nM; in the data set with PBMC TNF-α production it was 2300 nM. The “% of dose excreted, Urine” value in data set [2] was “D”. In addition, the 50% effective concentration (EC50) in the data set on T cell IL-2 production came to 1500 nM. The “Plasma (% AUC relative to TRA)” value in data set [3] is “D”.

Values taken from paper PMC3556473, “Absorption, metabolism and excretion of [^14C]pomalidomide in humans following oral administration” (Cancer Chemotherapy and Pharmacology, 2012).
